# Assay results published in US20230255202A1, “ANTIMICROBIAL COMPOSITION” (The Procter & Gamble Company, priority 2022, published 2023).
# Columns and labels:
# [1] = Stability of the isolated modified amino acid ester by 1H NMR; format: physicochemical; conditions: isolated solid or fluid
# [2] = test system: Gram Negative; assay: Surface Antimicrobial Kill Testing Method, activity normalized to triclosan internal standard; format: cell-based; conditions: for Negative Referenced Microbial Activity: Table 16; for Negative Referenced Microbial Activity / Referenced Microbial Activity / Gram Negative Referenced Microbial Activity: 0.5 wt % compound; for Negative Referenced Microbial Activity / Referenced Microbial Activity: 0.1M Acetic acid buffer pH 4.5; for Referenced Microbial Activity: Table 15; for antimicrobial benefit (in words): Table 16 nonionic formulation: DEGBE, EcoSurf EH9; for Gram Negative Referenced Microbial Activity: 5 wt % DPGME; for antimicrobial efficacy (in words): Table 17
# Protocol: Inoculum is prepared by streaking microorganism onto a Tryptic Soy Agar (TSA) plate and incubating for 24 h at 33° C. Plated bacteria is resuspended in saline until the transmittance percentage falls within the accepted range for ˜10^8 cfu/mL. For K. pneumonia (Kp) and P. aeruginosa (Pa), this is 31.00-33.00% T. For S. aureus (Sa) this is 23.00-25.00% T. A 10× concentration is made by spinning down the prepared inoculum, removing the supernatant saline from the bacterial pellet, then resuspending the pellet in 1/10 of the original volume of saline. The final inoculum is prepared with 5% of “soil” in the form of Fetal Bovine Serum (FBS).
# A 18×18 mm sterile glass coverslip is placed into an appropriate container (e.g. petri dish). 20 μL of prepared inoculum is added to the glass coverslip. Inoculum is then air-dried for 30 minutes in a 36° C. incubator. After drying, 40 μL of test sample is added on top of the dried inoculum. This is incubated at room temperature for the desired contact time. 5 mL of neutralizing media (Modified Letheen Broth+Tween+Lecithin (MLBTL)) is added to the coverslip and shaken on an orbital shaker for 5 minutes to ensure proper neutralization and extraction. Viability is then assessed of the neutralized and extracted sample by traditional/alternative microbiological techniques.
# The normalized antimicrobial activity reported in the performance examples below was generated from detection time data obtained as described in the Surface Antimicrobial Kill Test Method. To account for day-to-day variability an internal standard was tested with each series. The internal standard was a composition of 0.25 wt % Triclosan, Sigma Aldrich (St. Louis, Mo., USA; CAS #3380-34-5, 97.0-103.0% (active substance, GC)), 50 wt % DMSO, and 49.75 wt % H2O, with a final solution pH of 7.7. Normalized activity is reported following the equation 1 below.
# Normalized Activity=(αΔDT−βΔDT)/(γΔDT−βΔDT) equation 1.
# where, αΔDT is the average detection time of the antimicrobial compound, and γΔDT is the average detection time of the reference triclosan internal standard, and βΔDT is the average detection time of the background unperturbed bacteria.
# Modified amino acids of the present disclosure were tested as aqueous solutions in the Surface Antimicrobial Kill Testing Method above. To prepare test solutions modified amino acids were first dissolved in the appropriate solvent. Second the selected surfactant is added to the mixture. After vortex (1 min, Vortex-2 Genie, vortex speed 8) mixing, the samples were then diluted with […] of reverse osmosis water (RO water, Millipore Direct-Q™, pH 6). The aqueous solution was then vortexed (1 min, Vortex-2 Genie, vortex speed 8), to which the second ½ portion of water is added. The pH of the solution was then adjusted to the target pH using either 1N HCl, Glacial Acetic Acid, or 1N NaOH. The final solution was then vortexed (1 min, Vortex-2 Genie, vortex speed 8). An example batch sheet is provided below in Table 1.
# In Performance Examples 1-4 below, formulations comprising solvent, surfactant, and antimicrobial agents according to the present disclosure (e.g., based on modified amino acid esters), are evaluated via microbial surface kill tests according to the Surface Antimicrobial Kill Testing Method provided above. After treatment, microbial growth is referenced and reported to a triclosan sample and unaltered microbes according to the Normalization of Antimicrobial Activity provided above.
# [3] = DEGBE (5 wt %), EcoSurf EH9 1 wt %
structure (smiles),measurement,setting,value
N[C@@H](Cc1ccccc1)C(=O)OCc1ccccc1 [Synthetic Example 8],stability by 1H NMR,[1],stable for several months
same,Negative Referenced Microbial Activity,[2]; [3],4.6
CCCCCCOC(=O)[C@@H](N)C(C)C [Synthetic Example 3],stability by 1H NMR,[1],stable for several months
same,Referenced Microbial Activity,[2]; [3],2.8
"CCOC(=O)[C@@H](N)Cc1ccccc1 [Comparative Example C2, phenylalanine ethyl ester, reference compound]",Negative Referenced Microbial Activity,[2]; [3],0.4
same,antimicrobial benefit (in words),[2],little antimicrobial benefit
CCCCCCCCOC(=O)[C@@H](N)C(C)C [Synthetic Example 4],stability by 1H NMR,[1],stable for several months
same,Gram Negative Referenced Microbial Activity,"[2]; CTAC 1 wt %, pH 4.5",3.5
same,Gram Negative Referenced Microbial Activity,"[2]; Ecosurf EH6 1 wt %, pH 4.5",3.5
same,Gram Negative Referenced Microbial Activity,"[2]; Ecosurf EH6 1 wt %, pH 8.5",0.7
same,Gram Negative Referenced Microbial Activity,"[2]; Miranol Ultra 32 1 wt %, pH 4.5",3.5
same,Gram Negative Referenced Microbial Activity,"[2]; Plantaren 2000 1 wt %, pH 4.5",3.5
same,Gram Negative Referenced Microbial Activity,"[2]; SLS (29%) 1 wt %, pH 4.5",0.4
same,Gram Negative Referenced Microbial Activity,"[2]; SLS (29%) 1 wt %, pH 8.5",0.1
same,Gram Negative Referenced Microbial Activity,"[2]; Surfonic L 24-9 1 wt %, pH 2",2.5
same,Gram Negative Referenced Microbial Activity,"[2]; Surfonic L 24-9 1 wt %, pH 4.5",3.5
same,Gram Negative Referenced Microbial Activity,"[2]; Surfonic L24-9 1 wt %, pH 7",3.5
same,Gram Negative Referenced Microbial Activity,"[2]; Surfonic L24-9 1 wt %, pH 8.5",0.2
same,Gram Negative Referenced Microbial Activity,"[2]; Tween 80 1 wt %, pH 4.5",3.5
same,Gram Negative Referenced Microbial Activity,"[2]; no surfactant, pH 4.5, solution heated to 50 C. prior to testing",1.6
same,Referenced Microbial Activity,"[2]; DEGBE (5 wt %), EcoSurf EH6 1 wt %",3.7
same,Referenced Microbial Activity,[2]; [3],1.6
same,antimicrobial activity (in words),"[2]; Table 15 experiment, modified valine amino acids",highest activity
same,antimicrobial efficacy (in words),[2]; from pH 2 to about pH 7,improved antimicrobial efficacy
same,antimicrobial efficacy (in words),[2]; pH range greater than 7,did not provide a benefit
"CCOC(=O)C(N)C(C)C (stereo not shown) [Comparative Example C1, reference compound]",Referenced Microbial Activity,[2]; [3],0.5
CCCCCCCCCCCCCCCCOC(=O)[C@@H](N)C(C)C [Synthetic Example 6],stability by 1H NMR,[1],stable for several months
same,Referenced Microbial Activity,[2]; [3],0.6
CCCCCCCCCCCCCCCCCCOC(=O)[C@@H](N)C(C)C [Synthetic Example 7],stability by 1H NMR,[1],stable for several months
same,Referenced Microbial Activity,[2]; [3],0.9
same,Referenced Microbial Activity,"[2]; DMSO (50 wt %), EcoSurf EH6 1 wt %",0.6
CCCCCCCCCCCCOC(=O)[C@@H](N)Cc1ccccc1 [Synthetic Example 10],stability by 1H NMR,[1],stable for several months
same,Negative Referenced Microbial Activity,[2]; [3],0.1
same,antimicrobial benefit (in words),[2],little surface activity
